As usually defined, the IC50 is the concentration that gives 50% inhibition. By half-life is commonly meant the time needed for the level to fall by half in the phase considered. Read a high half-life as slow loss. The term CLint scaled denotes the rate of metabolic loss divided by the concentration. A lower CLint scaled goes with slow turnover.

In data set [1] the test system is Human breast cancer cells MCF-7. Put plainly: MCF-7 cell proliferation experiment. As to conditions: MCF-7 cells, 72 hours, Cell Titer-Glo. The data set is classed as cell-based. Here is the method: Test Example 2: MCF-7 Cell Proliferation Experiment
Human breast cancer cells MCF-7 (HTB-22, purchased from ATCC) were inoculated into a 96-well plate. The culture medium was an MEM (Hyclone, SH30024.01B) culture medium containing 10% of FBS (Gibco, 10099-141), 1% of pyruvic acid (Sigma, S8636), and 1% of nonessential amino acid (Sigma, M7145), and the inoculation density was 4,000 cells/well. The cells were cultured at 37° C., 5% CO2. The compound was prepared into a 20 mM stock solution, which was subjected to gradient dilution to a final concentration of […] with 100% DMSO (Sigma, D2650) and then diluted 20 folds with a culture medium containing 2% of FBS. After 24 hours of culture, the culture medium was removed, 90 μL of a culture medium containing 2% of FBS and 10 μL of drug were added to each well, while 10 μL of DMSO was added to the control group, and they were gently shaken and mixed. The blank group only contained 100 μL of 2% FBS culture medium. They were placed in an incubator and cultured at 37° C., 5% CO2. After 72 hours, 50 μL of mixed Cell Titer-Glo (Promega, G7571) was added. They were shaken and mixed uniformly, and placed at room temperature for 10 min. The chemiluminescence signal value was determined. The negative control was 0.5% DMSO well.
Background: ATP-based viability assays read luminescence as a measure of living cells.

A short description of data set [2]: Stability in human liver microsomes in vitro. It counts as in vitro ADME. As to conditions: for microsomal CLint: read-out: CLint(mic). Here is the method: Test Example 4: Test for Stability in Human Liver Microsomes In Vitro Eight 96-well incubation plates were prepared and named [NT], Blank60 and NCF60, respectively. […] No test compound or control compound was added to Blank60 plate, and samples were taken after incubation for 60 min. NCF60 plate was incubated with a potassium phosphate buffer instead of an NADPH regeneration system solution (Sigma, N0505) for 60 min. […] Only the microsome working solution was added to Blank60 plate, and the incubation plates Blank60, T5, T15, T30, T45 and T60 except T0 and NCF60 were then placed in a water bath at 37° C. and pre-incubated for about 10 min. To the samples of T0 plate, 600 μL of a stop solution (acetonitrile:methanol (95:5, v/v) solution containing 100 ng/mL of tolbutamide (Sigma, T0891)) was added first, and the NADPH regeneration system working solution was then added. 98 μL of a potassium phosphate buffer was added to each well of NCF60 plate and incubated for 60 min. After the pre-incubation in the incubation plates Blank60, T5, T15, T30, T45 and T60 was completed, 98 μL of the NADPH regeneration system working solution was added to each sample well to initiate the reaction. After an appropriate incubation time (such as 5, 15, 30, 45 and 60 min), 600 μL of a stop solution was added to each sample well and the control sample well in Blank60, […] the reaction. All the sample plates were shaken uniformly and centrifuged at 3220×g for 20 min. 200 μL of test sample supernatant was separately taken and diluted in 200 μL of an aqueous solution containing 0.3% formic acid for LC-MS/MS analysis, and 100 μL of control sample supernatant was taken and diluted in 300 μL of pure water for LC-MS/MS analysis. Calculation was performed according to the following formula: [formula] [formula] [formula] [formula] [formula] [formula]

For another data set, the target named is ERα (Homo sapiens (Human), UniProt P03372). Put plainly: Degradation effect of compound on ERα (ERα DuoSet IC ELISA in MCF-7 cells). It counts as cell-based. As to conditions: 24 h with compound; for DC50: read-out: IC50 value of ERα degradation by compound. Here is the method: In this test example, ERα DuoSet IC ELISA Kit (R&D, DYC5715) was used to detect the degradation effect of the compound on ERα. On the first day of the experiment, human breast cancer cells MCF-7 (the source was as above) were inoculated into a 24-well plate. The culture medium was an MEM culture medium containing 10% of activated-carbon-treated FBS (Tocyto, UT61204), 1% of pyruvic acid and 1% of nonessential amino acid. The inoculation density was 150,000 cells/well. The cells were cultured at 37° C., 5% CO2 for 24 h.
ERα, sequence (P03372 whole entry): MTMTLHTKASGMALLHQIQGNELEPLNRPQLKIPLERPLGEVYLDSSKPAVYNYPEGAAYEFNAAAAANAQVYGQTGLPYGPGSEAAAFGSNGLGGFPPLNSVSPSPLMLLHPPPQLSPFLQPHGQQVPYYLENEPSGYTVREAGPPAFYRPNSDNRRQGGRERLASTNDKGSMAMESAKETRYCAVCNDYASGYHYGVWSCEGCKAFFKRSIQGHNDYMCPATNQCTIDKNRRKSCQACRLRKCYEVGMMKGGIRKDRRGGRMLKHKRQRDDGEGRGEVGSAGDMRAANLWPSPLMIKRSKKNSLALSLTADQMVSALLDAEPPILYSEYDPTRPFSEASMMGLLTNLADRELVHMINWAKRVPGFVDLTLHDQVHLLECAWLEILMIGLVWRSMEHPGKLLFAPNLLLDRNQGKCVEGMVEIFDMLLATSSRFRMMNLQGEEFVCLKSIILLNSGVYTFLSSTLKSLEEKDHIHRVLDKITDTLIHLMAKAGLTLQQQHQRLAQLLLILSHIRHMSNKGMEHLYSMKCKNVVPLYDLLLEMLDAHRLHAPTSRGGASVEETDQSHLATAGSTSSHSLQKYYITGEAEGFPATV
On the second day of the experiment, the compound to be tested was diluted in gradient and added to a 24-well plate containing cells. The cells were cultured for 24 h at 37° C., 5% CO2. ERα capture antibody was diluted to 1 μg/ml with PBS (Corning, 21-040-CVR) and added to a 96-well plate at 100 μL/well, and the plate was […] coated overnight at room temperature.
On the third day of the experiment, the coated 96-well plate was washed three times with PBS, 300 μL of a blocking solution (R&D, DY995) was added to each well, and the plate was blocked at room temperature for 1 h. The 24-well plate was washed once with PBS, and the residual liquid was sucked off. […] The diluted cell lysate was taken and added to the blocked 96-well plate, with 100 μL per well, and incubated at room temperature for 2 h. The plate was washed three times with a washing solution (R&D, WA126), and a primary antibody was then added. After incubation for 1 h, the 96-well plate was washed four times, a secondary antibody was added, and incubation was carried out at room temperature in the dark for 30 min. The plate was washed four times with the washing solution, and TMB (R&D, DY999) was added. After 15 minutes of development, the reaction was terminated with a stop solution (R&D, DY994), and the light absorption at 450 nm was read.
In general terms: ELISA stands for enzyme-linked immunosorbent assay.

Setting [3] is: human liver microsomes, microsome protein 1 mg/mL working solution, NADPH.
Where [4] appears, read: human liver microsomes, scaled to liver.

`C[C@@H]1Cc2c(ccc3[nH]ncc23)[C@@H](c2ccc(NC3CN(CCCF)C3)cn2)N1CC(F)(F)F` [AZD9833, reference compound] displayed an IC50 in data set [1] (Homo sapiens, MCF7) of 2.45 nM. Further, the half-life in data set [2] (setting [3]) came to 1.33 h. Moreover, the intrinsic clearance (CLint scaled) in data set [2] (setting [4]) is 15.6 mL/min/kg. The microsomal CLint in data set [2] (human liver microsomes) came to 17.3 µL/min/mg.

With `COc1cc(NC2CN(CCCF)C2)cnc1[C@@H]1c2ccc3[nH]c(=O)oc3c2C[C@@H](C)N1CC(F)(F)F` [Example 28, (6S,8R)-6-(5-((1-(3-fluoropropyl)azetidin-3-yl)amino)-3-methoxypyridin-2-yl)-8-methyl-7-(2,2,2-trifluoroethyl)-6,7,8,9-tetrahydroxazolo[5,4-f]isoquinolin-2(3H)-one], half-maximal inhibition in data set [1] (Homo sapiens, MCF7) (IC50) was put at 0.4 nM.

In data set [1] (Homo sapiens, MCF7), `C[C@@H]1Cc2c(ccc3[nH]c(=O)oc23)[C@@H](c2c(F)cc(O[C@H]3CCN(CCCF)C3)cc2F)N1CC(F)(F)F` [Example 11] came in with an IC50 of 0.38 nM. The DC50 at ERα was found to be 0.62 nM. `C[C@@H]1Cc2c(ccc3[nH]c(=O)oc23)[C@@H](c2c(F)cc(O[C@@H]3CCN(C/C=C/C(=O)N(C)C)C3)cc2F)N1CC(F)(F)F` [Example 37] yielded a half-inhibitory concentration (IC50) in data set [1] (Homo sapiens, MCF7) of 0.61 nM. In turn, `C[C@@H]1Cc2c(ccc3[nH]c(=O)oc23)[C@@H](c2ncc(NC3CN(CCCF)C3)cc2F)N1CC(F)(F)F` [Example 27, (6S,8R)-6-(3-fluoro-5-((1-(3-fluoropropyl)azetidin-3-yl)amino)pyridin-2-yl)-8-methyl-7-(2,2,2-trifluoromethyl)-6,7,8,9-tetrahydroxazolo[5,4-f]isoquinolin-2(3H)-one] showed an IC50 in data set [1] (Homo sapiens, MCF7) of 1.63 nM. `C[C@@H]1Cc2c(ccc3[nH]c(=O)oc23)[C@@H](c2c(F)cc(NC3CN(C/C=C/C(=O)N(C)C)C3)cc2F)N1CC(F)(F)F` [Example 35, (E)-4-(3-((3,5-difluoro-4-((6S,8R)-8-methyl-2-oxo-7-(2,2,2-trifluoroethyl)-2,3,6,7,8,9-hexahydrooxazolo[5,4-f]isoquinolin-6-yl)phenyl)amino)azetidin-1-yl)-N,N-dimethylbut-2-enamide] showed an IC50 in data set [1] (Homo sapiens, MCF7) of 0.82 nM. Regarding `C[C@@H]1Cc2c(ccc3[nH]c(=O)oc23)[C@@H](c2ccc(NC3CN(CCCF)C3)cn2)N1CC(F)(F)F` [Example 5, (6S,8R)-6-(5-((1-(3-fluoropropane)azetidin-3-yl)amino)pyridin-2-yl)-8-methyl-7-(2,2,2-trifluoroethyl)-6,7,8,9-tetrahydrooxazolo[5,4-f]isoquinolin-2(3H)-one], the half-life in data set [2] (setting [3]) was 1.26 h. In data set [2] (setting [4]), this molecule showed an intrinsic clearance (CLint scaled) of 16.5 mL/min/kg. The microsomal CLint in data set [2] (human liver microsomes) came out at 18.4 µL/min/mg. With “(E)-4-((S)-3-((3,5-difluoro4-((6S,8R)-8-methyl-2-oxo-7-(2,2,2-trifluoroethyl)-2,3,6,7, 8,9-hexahydrooxazolo[5,4-f]isoquinolin-6-yl)phenoxy)pyrrolidin-1-yl)-N,N-dimethylbut-2-enamide [Example 39]”, in data set [1], the midpoint of inhibition, the IC50, lay at 0.49 nM. With `C[C@@H]1Cc2c(ccc3[nH]ncc23)[C@@H](c2c(F)cc(OCCN3CC(CF)C3)cc2F)N1CC(C)(C)F` [Comparative Compound 1, (6S,8R)-6-(2,6-difluoro-4-(2-(3-(fluoromethyl)azetidin-1-yl)ethoxy)phenyl)-7-(2-fluoro-2-methylpropyl)-8-methyl-6,7,8,9-tetrahydro-3H-benzopyrazolo[4,3-f]isoquinoline, reference compound], the figures for the half-inhibitory concentration (IC50) (in data set [1]; at ERα) were 2.68 nM and 1.89 nM, respectively. Besides, in data set [2] (setting [3]), the “T1/2” value came out at 0.703 h. In addition, the “CLint(liver)” value in data set [2] (setting [4]) was found to be 29.6 mL/min/kg. Besides, the “CLint(mic)” value in data set [2] (human, microsomes) was 32.9 µL/min/mg. `C[C@@H]1Cc2c(ccc3[nH]c(=O)oc23)[C@@H](c2ccc(OCCCN3CCN(CCNc4cccc5c4CN(C4CCC(=O)NC4=O)C5=O)CC3)cn2)N1CC(F)(F)F` (stereo partly drawn) [Example 43, 3-(4-((2-(4-(3-((6-((6S,8R)-8-methyl-2-oxo-7-(2,2,2-trifluoroethyl)-2,3,6,7,8,9-hexahydrooxazolo[5,4-f]isoquinolin-6-yl)pyridin-3-yl)oxy)propyl)piperazin-1-yl)ethyl)amino)-1-oxoisoindolin-2-yl)piperidine-2,6-dione] displayed a half-maximal inhibitory concentration (IC50) in data set [1] (Homo sapiens, MCF7) of 0.69 nM. In addition, the DC50 on ERα was 0.63 nM. For the molecule `C[C@@H]1Cc2c(ccc3[nH]c(=O)oc23)[C@@H](c2c(F)cc(O[C@H]3CCN(CCCF)C3)cc2F)N1CC(F)(F)CO` [Example 13, (6S,8R)-7-(2,2-difluoro-3-hydroxypropyl)-6-(2,6-difluoro-4-(((S)-1-(3-fluoropropane)pyrrolidin-3-yl)oxy)phenyl)-8-methyl-6,7,8,9-tetrahydrooxazolo[5,4-f]isoquinolin-2(3H)-one], in data set [1] (Homo sapiens, MCF7), the IC50 amounted to 0.3 nM. On ERα, the DC50 worked out at 0.23 nM. In data set [1] (Homo sapiens, MCF7), `C[C@@H]1Cc2c(ccc3[nH]c(=O)oc23)[C@@H](c2ccc(O[C@H]3CCN(CCCF)C3)cn2)N1CC(F)(F)F` [Example 29, (6S,8R)-6-(5-(((S)-1-(3-fluoropropane)pyrrolidin-3-yl)oxy)pyridin-2-yl)-8-methyl-7-(2,2,2-trifluoroethyl)-6,7,8,9-tetrahydrooxazolo[5,4-f]isoquinolin-2(3H)-one] showed a 50% inhibitory concentration (IC50) of 0.71 nM. In data set [1] (Homo sapiens, MCF7), `C[C@@H]1Cc2c([nH]c3ccccc23)[C@@H](c2c(F)cc(/C=C/C(=O)O)cc2F)N1CC(C)(C)F` [AZD9496, reference compound] gave a 50% inhibitory concentration (IC50) of 3.84 nM. On the same count and under the same terms, with `C[C@@H]1Cc2c(ccc3[nH]c(=O)oc23)[C@@H](c2c(F)cc(OCCNC/C=C/C(=O)N(C)C)cc2F)N1CC(F)(F)F` [Example 16, (E)-4-((2-(3,5-difluoro-4-((6S,8R)-8-methyl-2-oxy-7-(2,2,2-trifluoroethyl)-2,3,6,7,8,9-hexahydrooxazolo[5,4-f]isoquinolin-6-yl)phenoxy)ethyl)amino)-N,N-dimethylbut-2-enamide] the figure was 0.8 nM. For the molecule `C[C@@H]1Cc2c(ccc3[nH]c(=O)oc23)[C@@H](c2c(F)cc(N3CC4(CN(CCF)C4)C3)cc2F)N1CC(F)(F)F` [Example 8, (6S,8R)-6-(2,6-difluoro-4-(6-(2-fluoroethyl)-2,6-diazspiro[3.3]hept-2-yl)phenyl)-8-methyl-7-(2,2,2-trifluoroethyl)-6,7,8,9-tetrahydrooxazolo[5,4-f]isoquinolin-2(3H)-one], the half-life in data set [2] (setting [3]) amounted to 1.43 h. This molecule also registered a CLint scaled in data set [2] (setting [4]) of 14.5 mL/min/kg. Moreover, the microsomal CLint in data set [2] (human liver microsomes) was 16.1 µL/min/mg.

Source of the values: patent publication US20240217988A1, “ESTROGEN RECEPTOR ANTAGONIST” (Shenzhen Forward Pharmaceuticals Co., Limited, priority 2021, published 2024).
